“Also recorded” adds a separate entry of the source. Read-outs that look alike come from different tables or passages of the source.
Tests used:
[1] = Aqueous stability of MOLNU followed by 1H NMR; assay type: physicochemical; details: 25 °C; for hydrolyzed products: in 5 days
Method: Molnupiravir, one of the title compounds, contains an ester functional group that may hydrolyze under certain conditions. Therefore, the aqueous stability of MOLNU was investigated as a first step at pH 2.0, 7.4, and 12.0 by ^1H NMR spectroscopy.
^1H NMR spectroscopic measurements were carried out on a Bruker Avance III HD instrument (Billerica, MA, USA). The spectra were recorded with WATERGATE water suppression pulse sequence using DSS internal standard and 10% (v/v) D2O. Aqueous stability of MOLNU was followed at pH 2.0, 7.4 and 12.0.

[2] = Proton dissociation constants by pH-potentiometry; assay type: physicochemical
Method: pH-potentiometric titrations of the antiviral agents were carried out similarly to our former works.

[3] = Proton dissociation constants by UV-vis titration; assay type: physicochemical
Method: An Agilent Carry 8454 diode array spectrophotometer was used to obtain UV-vis spectra in the interval 190–1100 nm, the path length (l) was 1 cm. The spectrophotometric titrations were performed with samples containing 25–200 μM compound over the pH range 2.0–11.5 at an ionic strength of 0.10 M (KCl) and at 25 °C. Proton dissociation constants together with the individual molar absorbance spectra were calculated with the computer program PSEQUAD [52]. The program requires the following input data: measured spectra together with the corresponding pH and analytical (total) concentration of the compounds; species matrix, with approximate protonation constant(s) and the absorbing species need to be defined. The Newton–Raphson iterative method was used to obtain protonation constant(s) with standard deviations and molar spectra of the individual species.

[4] = Calculated distribution of species in different protonation states; assay type: physicochemical
[5] = target: T1, human serum albumin (HSA) (Homo sapiens, UniProt P02768); assay: Ultrafiltration-UV-vis with HSA; assay type: in vitro ADME; details: for protein bound fraction: pH 7.4 (PBS), 25 °C
T1 construct: purchased Sigma–Aldrich A8763
T1 sequence (P02768 25-609): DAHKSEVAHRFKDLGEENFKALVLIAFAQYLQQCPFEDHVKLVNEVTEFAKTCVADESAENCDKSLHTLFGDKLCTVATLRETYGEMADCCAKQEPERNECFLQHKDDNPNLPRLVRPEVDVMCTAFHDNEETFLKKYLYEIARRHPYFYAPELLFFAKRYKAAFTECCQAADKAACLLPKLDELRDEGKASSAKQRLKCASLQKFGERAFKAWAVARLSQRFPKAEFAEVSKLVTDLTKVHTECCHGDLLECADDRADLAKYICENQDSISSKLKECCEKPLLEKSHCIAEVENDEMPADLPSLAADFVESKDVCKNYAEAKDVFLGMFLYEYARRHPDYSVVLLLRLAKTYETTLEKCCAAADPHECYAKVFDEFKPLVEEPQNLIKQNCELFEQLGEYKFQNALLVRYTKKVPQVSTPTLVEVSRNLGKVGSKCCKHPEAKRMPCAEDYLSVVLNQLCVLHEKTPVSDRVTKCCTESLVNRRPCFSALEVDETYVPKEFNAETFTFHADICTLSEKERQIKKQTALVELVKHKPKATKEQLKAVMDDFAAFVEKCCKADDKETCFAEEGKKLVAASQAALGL

[6] = target: T2, HSA (Homo sapiens, UniProt P02768); assay: Hydrolysis of MOLNU in the presence of HSA, 1H NMR; assay type: in vitro ADME; details: HSA 630 μM; 1 mM MOLNU; PBS
T2 construct: purchased Sigma–Aldrich A8763
T2 sequence (P02768 25-609): as above

[7] = target: T3, human transferrin (Homo sapiens, UniProt P02787); assay: Hydrolysis of MOLNU in the presence of transferrin, 1H NMR; assay type: in vitro ADME; details: 45 μM human transferrin; same behavior = no hydrolysis as with HSA
T3 construct: purchased Sigma–Aldrich T3309
T3 sequence (P02787 20-698): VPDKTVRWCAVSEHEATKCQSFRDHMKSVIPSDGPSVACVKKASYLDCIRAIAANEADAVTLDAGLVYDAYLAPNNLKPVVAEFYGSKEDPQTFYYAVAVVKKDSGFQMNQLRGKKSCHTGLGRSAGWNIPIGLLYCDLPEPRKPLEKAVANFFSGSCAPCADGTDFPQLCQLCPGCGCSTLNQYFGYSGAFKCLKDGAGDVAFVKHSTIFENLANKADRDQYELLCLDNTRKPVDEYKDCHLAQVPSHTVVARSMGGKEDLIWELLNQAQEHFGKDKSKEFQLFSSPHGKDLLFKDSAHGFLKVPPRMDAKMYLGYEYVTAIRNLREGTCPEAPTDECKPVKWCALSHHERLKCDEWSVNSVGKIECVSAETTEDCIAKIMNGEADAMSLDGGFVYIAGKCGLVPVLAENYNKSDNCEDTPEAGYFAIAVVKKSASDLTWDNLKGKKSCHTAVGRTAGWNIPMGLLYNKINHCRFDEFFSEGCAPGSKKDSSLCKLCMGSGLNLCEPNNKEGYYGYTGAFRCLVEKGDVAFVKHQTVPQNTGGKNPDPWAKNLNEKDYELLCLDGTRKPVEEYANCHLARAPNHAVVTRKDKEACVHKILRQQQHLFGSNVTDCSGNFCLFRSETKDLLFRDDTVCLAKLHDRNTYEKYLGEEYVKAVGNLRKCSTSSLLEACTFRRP

[8] = target: T4, α1-acid glycoprotein (AGP) (Homo sapiens, UniProt P02763); assay: Steady-state fluorometry, quenching of AGP fluorescence; assay type: binding; details: for quenching of the fluorescence of AGP: pH 7.4 (PBS), 25 °C
T4 construct: purchased Sigma–Aldrich G9885
T4 sequence (P02763 19-201): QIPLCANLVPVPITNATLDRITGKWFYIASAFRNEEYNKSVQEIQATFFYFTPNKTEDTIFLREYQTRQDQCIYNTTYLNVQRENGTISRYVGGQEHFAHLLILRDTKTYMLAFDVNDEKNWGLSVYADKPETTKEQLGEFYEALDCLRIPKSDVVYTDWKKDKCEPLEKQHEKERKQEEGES

[9] = target: T5, human serum albumin (HSA), site I (Trp-214) (Homo sapiens, UniProt P02768); assay: Steady-state fluorometry, quenching of HSA Trp-214 fluorescence; assay type: binding; details: pH 7.4 (PBS), 25 °C
T5 construct: purchased Sigma–Aldrich A8763
T5 sequence (P02768 25-609): as the sequence (P02768 25-609) above

[10] = target: T6, HSA site I (Homo sapiens, UniProt P02768); assay: Warfarin (WF) site marker displacement from HSA; assay type: binding; details: HSA-WF 1:1; pH 7.4 (PBS); 25 °C
T6 construct: purchased Sigma–Aldrich A8763
T6 sequence (P02768 25-609): as above

[11] = target: T7, HSA site II (Homo sapiens, UniProt P02768); assay: Dansylglycine (DG) site marker displacement from HSA; assay type: binding
T7 construct: purchased Sigma–Aldrich A8763
T7 sequence (P02768 25-609): as above

[12] = system: human blood serum (HMM fraction); details: pH 7.4
[13] = physchem; details: pH 2, thermodynamic from solid
[14] = physchem; details: pH 2, logD2.0
[15] = Aqueous stability of FAVI and IMA followed by UV-vis spectra; assay type: physicochemical; details: pH 2 and 7.4; 25 °C
[16] = target: T1, human serum albumin (HSA); assay: Frontal analysis capillary electrophoresis (FACE) with HSA; assay type: binding
[17] = cited from earlier work
[18] = physchem
[19] = system: AGP; details: pH 4.95 (acetate), 25 °C, ITC; cited from earlier work
[20] = system: AGP; details: pH 4.95 (acetate), 25 °C, NMR spin-lattice relaxation times; cited from earlier work
[21] = system: AGP; details: cited from earlier work
[22] = system: AGP (native); details: cited from earlier work
[23] = system: AGP (F1-S); details: pH 7.4 (ringer), 37 °C, circular dichroism; cited from earlier work
[24] = system: HSA (fatty acid free); details: pH 7; cited from earlier work
[25] = system: plasma protein; details: cited from earlier work
[26] = target: T4, α1-acid glycoprotein (AGP); assay: Frontal analysis capillary electrophoresis (FACE) with AGP; assay type: binding; details: pH 7.4 (PBS); 25 °C
[27] = target: T4, α1-acid glycoprotein (AGP); assay: Dipyridamole (DIP) displacement from AGP, fluorescence anisotropy; assay type: binding; details: cAGP = 2.0 μM; cDIP = 1.0 μM; pH 7.4 (PBS); 25 °C
[28] = system: α1-acid glycoprotein (AGP); details: human
[29] = system: HSA + AGP; details: human, 200 μM, pH 7.4
[30] = physchem; remark: listed apart in the source
[31] = system: human serum proteins; details: cited from earlier work
[32] = pH 2.0, calculated from pKa values
[33] = pH 7.4, calculated from pKa values
[34] = pH 7.4, using pKa4 = 7.7 determined by Szakács et al. [48]

Q: Which results are given for `CC(C)C(=O)OC[C@H]1O[C@@H](n2ccc(NO)nc2=O)[C@H](O)[C@@H]1O` [MOLNU, molnupiravir]?
A: hydrolyzed products ([1]; pH 2.0): 8%; hydrolyzed products ([1]; pH 7.4): 2%; time within which MOLNU hydrolyzes completely to isobutyrate and EIDD-1931 ([1]; pH 12.0, cMOLNU = 1 mM): ≤ 30 min; pKa ([2]; pKa1 (pHm)): 2.14; pKa ([2]; pKa2 (pHm)): 10.2; pKa ([3]; pKa1 (UV-vis)): 2.11; pKa ([3]; pKa2 (UV-vis)): 10.3; species H2L+ [4, 32]: 58%; species HL [4, 32]: 42%; species HL [4, 33]: HL: 100%; protein bound fraction ([5]; HSA 630 μM, 30 μM compound): < 2%; hydrolysis of MOLNU within two days [6]: Neither of the two media could induce hydrolysis; also recorded: could not hydrolyze the ester bond; hydrolysis of MOLNU within two days [7]: The same behavior was observed; quenching of the fluorescence of AGP [8]: did not quench; quenching of HSA (Trp-214) fluorescence [9]: did not significantly quench; displacement of WF from HSA site I [10]: no competition; displacement of DG from HSA site II ([11]; HSA-DG 1:1, pH 7.4 (PBS), 25 °C): could not displace DG; protein bound fraction ([12]; 30 μM): less than 2%; solubility thermodynamic [13]: ≥ 10 mM; logD at 2 h [14]: -0.68 ± 0.02

Q: What does the source list for `Cc1ccc(NC(=O)c2ccc(CN3CCN(C)CC3)cc2)cc1Nc1nccc(-c2cccnc2)n1` [IMA, imatinib]?
A: stable in aqueous media at least for [15]: ≥ 30 h; pKa ([2]; I = 0.1 M (KCl), 25 °C, read-out: pKa2 (pHm)): 3.06; pKa ([2]; I = 0.1 M (KCl), 25 °C, read-out: pKa3 (pHm)): 3.86; pKa ([2]; I = 0.1 M (KCl), 25 °C, read-out: pKa4 (pHm)): > 7; pKa ([3]; I = 0.1 M (KCl), 25 °C, read-out: pKa1 (UV-vis)): 1.72; species H2L2+ [4, 32]: H2L^2+: 5%; species H3L3+ [4, 32]: 62%; species H4L4+ [4, 32]: 33%; species HL+ [4, 33]: 76%; species HL+ [4, 34]: 67%; species L [4, 34]: 33%; binding to HSA in FACE ([16]; pH 7.4): no considerable binding; ΔlogK′, effect of long-term storage of AGP in plastic microtubes [8]: 0.2; displacement of DG from HSA site II ([11]; pH 7.4): unable to displace DG; pKa4 ([17]; pH-potentiometry, I = 0.15 M NaCl, ref 48 (Szakács et al.)): 7.7; pKa [18]: 7.9; K′ [19]: 8.7 × 10^2; logK′ [19]: 2.94; logK′ [20]: 3.51; logK′ [21]: 6.69; logK′ ([22]; AGP (native), pH 7.4 (ringer), 37 °C, circular dichroism): 6.38; K′ ([22]; pH 7.4): 2.4 × 10^6 1.7 × 10^6; logK′ [23]: 6.23; K′ [24]: 1.2 × 10^5 1.0 × 10^5

Q: With `O=c1nc(NO)ccn1[C@@H]1O[C@H](CO)[C@@H](O)[C@H]1O` [EIDD-1931, N(4)-hydroxycytidine] as the compound, how does the plasma protein binding [25] read?
A: No plasma protein binding was observed

Q: Which “stable in aqueous media at least for” value [15] does the source give for `NC(=O)c1nc(F)c[nH]c1=O` [FAVI, favipiravir] here?
A: ≥ 30 h

Q: And the pKa ([2]; pKa1 (pHm))?
A: 5.11

Q: And the pKa ([3]; pKa1 (UV-vis))?
A: 5.08

Q: What about the “species L−” value [4, 33] of the same compound?
A: L^−:100%

Q: And the protein bound fraction ([5]; HSA 50 μM, 50 μM compound, IMA corrected for 85% filter adhesion)?
A: < 2%

Q: What about the protein bound fraction ([5]; HSA 630 μM, 200 μM compound) of the same compound?
A: < 2%

Q: What about the bound fraction ([5]; different concentrations of HSA) of the same compound?
A: less than 2%

Q: And the “binding to AGP in FACE” value [26]?
A: neither of the two proteins are involved in binding of FAVI

Q: And the “binding to HSA in FACE” value ([16]; up to 5 equiv. albumin, pH 7.4 (PBS), 25 °C)?
A: neither of the two proteins are involved in binding of FAVI

Q: What about the “quenching of the fluorescence of AGP” value ([8]; 91 equiv. of compound) of the same compound?
A: 6%

Q: What about the “quenching of the fluorescence of AGP” value [8] of the same compound?
A: did not quench

Q: And the “quenching of HSA (Trp-214) fluorescence” value [9]?
A: did not significantly quench

Q: What about the “quenching of HSA (Trp-214) fluorescence” value ([9]; listed as Favipiravir) of the same compound?
A: did not quench

Q: And the “displacement of DIP from AGP” value [27]?
A: no interaction between the studied species takes place

Q: And the “displacement of WF from HSA site I” value [10]?
A: no competition

Q: And the protein bound fraction ([12]; 200 μM)?
A: 22 ± 2%

Q: What about the bound fraction [28] of the same compound?
A: less than 2%

Q: And the protein bound fraction ([28]; 25 μM)?
A: < 2%

Q: And the protein bound fraction ([28]; 50 μM)?
A: < 2%

Q: What about the protein bound fraction ([28]; 100 μM) of the same compound?
A: < 2%

Q: What about the protein bound fraction ([28]; 200 μM) of the same compound?
A: < 2%

Q: What about the protein bound fraction [29] of the same compound?
A: 2 ± 1%

Q: What about the solubility thermodynamic [13] of the same compound?
A: ≥ 10 mM

Q: And the pKa [30]?
A: 5.17

Q: What about the pKa [18] of the same compound?
A: 5.1

Q: What about the logD at 2 h [14] of the same compound?
A: 0.15

Q: And the “binding attributed to AGP” value [31]?
A: 6.5%

Q: And the “binding attributed to HSA” value [31]?
A: 65%

Q: Which pKa ([17]; I = 0.1 M NaNO3) does the source give for `CC(C)C(=O)O` [isobutyric acid] here?
A: 4.67

— PMC9917862 (International Journal of Molecular Sciences, 2023)
